Active and inactive are the calls of the source. No cut-off for these calls is given here.
Tests used:
[1] = molecular target: T1, Bile acid receptor (Homo sapiens) (UniProt Q96RI1); experiment: Binding affinity to human GTS-tagged FXR LBD using fluorescein-tagged SRC2-2 at 10 nM after 15 to 30 mins by TR-FRET assay in presence of GW4064
T1 sequence (whole entry): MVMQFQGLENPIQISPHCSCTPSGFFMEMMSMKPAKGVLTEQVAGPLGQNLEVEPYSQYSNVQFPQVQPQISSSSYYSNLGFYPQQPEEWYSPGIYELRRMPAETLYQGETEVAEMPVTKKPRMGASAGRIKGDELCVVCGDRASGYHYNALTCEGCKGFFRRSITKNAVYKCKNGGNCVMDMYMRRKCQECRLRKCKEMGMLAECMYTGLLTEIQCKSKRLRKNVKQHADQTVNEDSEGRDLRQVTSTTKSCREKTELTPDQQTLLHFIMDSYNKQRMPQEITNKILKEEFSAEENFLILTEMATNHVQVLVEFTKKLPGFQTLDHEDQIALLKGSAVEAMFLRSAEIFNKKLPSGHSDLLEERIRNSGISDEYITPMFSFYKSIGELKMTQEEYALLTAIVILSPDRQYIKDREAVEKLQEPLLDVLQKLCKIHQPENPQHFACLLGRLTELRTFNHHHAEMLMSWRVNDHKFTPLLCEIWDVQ

[2] = molecular target: T1, Bile acid receptor (Homo sapiens); experiment: Binding affinity to human GTS-tagged FXR LBD using fluorescein-tagged SRC2-2 at 10 nM after 15 to 30 mins by TR-FRET assay in presence of fexaramine
[3] = molecular target: T1, Bile acid receptor (Homo sapiens); experiment: Binding affinity to human GTS-tagged FXR LBD using fluorescein-tagged SRC2-2 at 10 nM after 15 to 30 mins by TR-FRET assay

Activity [1]: Active
Activity [2]: Active
Activity [3]: Active
SMILES: CC(C)c1onc(-c2c(Cl)cccc2Cl)c1COc1ccc(/C=C/c2cccc(C(=O)NNC(=S)Nc3ccc(-c4c5ccc(=O)cc-5oc5cc(O)ccc45)c(C(=O)O)c3)c2)c(Cl)c1
